Test results taken from patent publication US20250345351A1, “OLIGOSACCHARIDE COMPOSITIONS AND METHODS OF USE” (DSM NUTRITIONAL PRODUCTS, LLC, priority 2020, published 2025).

How the values were obtained:
[1] = system: fecal samples from ten healthy subjects; assay: Ex vivo fermentation of the selected oligosaccharide composition in the presence of mesalamine: SCFA by GC-FID (Example 23); format: cell-based, human; settings: 0.5, 2, 8, 32, 125, or 500 μM mesalamine with the composition
Method: 5-aminosalicilic acids (5-ASA), such as mesalamine, are standard-of-care compounds for the treatment of patients with mild-to-moderate ulcerative colitis. The ability of the selected oligosaccharide composition to support the growth of microbial taxa in the presence of […] determined. Fecal samples from ten healthy subjects were incubated anaerobically in supplemented Clostridium minimal medium without (negative control) or with the selected oligosaccharide composition. Samples with the selected oligosaccharide composition were also incubated with 0.0, 0.5, 2, 8, 32, 125, or 500 μM mesalamine. Each fecal sample incubation was performed with three biological replicates. After incubation, samples were sedimented by centrifugation and culture supernatants were collected for SCFA quantification by GC-FID.

[2] = system: fecal microbiome of healthy subjects; assay: Ex vivo fermentation in the presence of mesalamine: 16S rRNA amplicon sequencing, Bray-Curtis dissimilarity (Example 23); format: cell-based, human; settings: all 5-ASA concentrations tested; replicate sequencing dissimilarity 0.06 (S.D. 0.03)
Method: 5-aminosalicilic acids (5-ASA), such as mesalamine, are standard-of-care compounds for the treatment of patients with mild-to-moderate ulcerative colitis. The ability of the selected oligosaccharide composition to support the growth of microbial taxa in the presence of mesaline was determined. Fecal samples from ten healthy subjects were incubated anaerobically in supplemented Clostridium minimal medium without (negative control) or with the selected oligosaccharide composition. Samples with the selected oligosaccharide composition were also incubated with 0.0, 0.5, 2, 8, 32, 125, or 500 μM mesalamine. Each fecal sample incubation was performed with three biological replicates. After incubation, samples were sedimented by centrifugation and culture supernatants were collected for SCFA quantification by GC-FID.
To understand if mesalamine influenced understand the shifts in taxonomic composition produced by incubation with the selected oligosaccharide composition, the fecal samples were characterized by 16S rRNA amplicon seuquencing. Genomic DNA was extracted from fecal samples using DNeasy PowerSoil extraction plates (Qiagen) and quantified using the Quant-iT PicoGreen dsDNA assay (Invitrogen). 16S rRNA libraries were prepared by PCR amplification with the 515F/806R primer set before sequencing on the Illumina NextSeq platform to at least 25 thousand reads. […]

## Nc1ccc(O)c(C(=O)O)c1 [mesalamine]
[1]
  effect on SCFA production by the selected oligosaccharide composition: none of the samples incubated with mesalamine showed any significant differences in SCFA production
[2]
  mean Bray-Curtis dissimilarity to samples incubated with the composition and without mesalamine: 0.06 (S.D. 0.02)
